Measurements from patent publication US9290452B2, “Multicomponent crystalline system comprising deferasirox and isonicotinamide and a process for the preparation thereof” (BASF SE, priority 2012, dated 2016).

Assays:
[1] = Aqueous solubility determination (suspension equilibration for three days, HPLC); format: physicochemical; conditions: pure water, 25±2° C. (ambient temperature), about three days of suspension equilibration, filtered solution
Procedure: The aqueous solubility of Deferasirox free drug substance and the multicomponent crystalline system of the present invention (Deferasirox-Isonicotinamide co-crystal) was determined in water at ambient temperature after about three days of suspension equilibration using HPLC for the determination of the concentration in the filtered solution.
Solubility determinations were carried out in pure water at 25±2° C. Suspensions with about 50 mg the solid form, either the co-crystal of the present invention or deferasirox free drug substance in 7 mL water were prepared an equilibrated for three days before the solution phase was filtered off and tested by HPLC.
HPLC was carried out on an Agilent 1100 HPLC chromatograph equipped with a UV-vis detection unit. The column type used was a Waters XTerra MS C18, 100×4.6 mm, 5 μm (FK-CC01F). […]
882 mg of Deferasirox and 290 mg of isonicotinamide are dissolved in a mixture of 15 ml acetone and 3 ml THF by shortly heating to reflux temperature. […] Then suspension is filtered and the concentration in the solution determined by HPLC. […]

[2] = Dynamic water vapor adsorption measurements (DVS); format: physicochemical; conditions: water vapor sorption
From the text: It is known that the anhydrous form A of Deferasirox converts to a hydrate form upon exposure to high relative humidity, therefore anhydrous Deferasirox is hygroscopic. The multicomponent crystalline system described here is characterized in that it has good hygroscopic properties, i.e. absorb little water at high relative humidity. This is evident from table 1 below, which compares the water contents of the multicomponent crystalline system and Deferasirox free drug substance at 50% and 95% relative humidity. The data originate from dynamic water vapor adsorption measurements. The water vapor sorption measurement is a suitable method for investigating the hygroscopic properties of solid substances. Water vapor sorption measurements can be carried out in different ways. In general, in this connection, a small sample of ca. 10-30 mg is introduced into a microbalance in a suitable sample carrier. The sample is then exposed to different relative humidities in accordance with a defined program, the change in the sample mass being simultaneously recorded over the time. […]
Dynamic water vapor adsorption measurements were carried out using an SPS11 100 n instrument, manufactured by “Projekt Messtechnik” in Ulm, Germany. […] The sample was then subjected to preselected relative humidities in accordance with a defined program, the change in mass being determined over the time. […]

solubility thermodynamic at 3 days [1]: < 1 µg/mL
H2O content at 50% r.h. ([2]; 50% relative humidity): 0.5%
H2O content at 95% r.h. ([2]; 95% relative humidity): 3.6%
SMILES: O=C(O)c1ccc(-n2nc(-c3ccccc3O)nc2-c2ccccc2O)cc1 [Deferasirox free drug substance, 4-[3,5-bis(2-hydroxyphenyl)-1H-1,2,4-triazol-1-yl]benzoic acid]
